The subject of one data set is NK activity. Briefly: Example 1: return of NK activity in 5-FU immune-suppressed rats. The format is in vivo, rat. Particulars: one injection, molar equivalent of 200 ug/kg thymosin, compared with Thymosin alpha 1 200 ug/kg. The method, then:
(§1) Rats were injected with 5-fluorouracil (5-FU) to cause immune suppression, then were treated with an injection of thymosin alpha 1 (200 ug/kg) or pegylated thymosin alpha 1 (20,000 MW PEG-Thymosin alpha 1) (the equivalent on a molar basis of 200 ug/kg of thymosin molecules) to determine the effect on immune parameters.

In the next data set the test system is activated T cells, CD25+. Briefly: Example 1: return of activated T cells in 5-FU immune-suppressed rats. Format: in vivo, rat. Particulars: one injection, molar equivalent of 200 ug/kg thymosin, compared with Thymosin alpha 1 200 ug/kg. The method, then:
as §1

The conditions of data set [1]: subcutaneously injected; cited from earlier work.
Data set [2] can be described thus: Adverse events observed in the rat studies. Format: in vivo. The method, then:
In the following examples, which are not intended to be limiting, a continuous infusion of TA1 was evaluated in a cancer therapy model with the use of surgically implanted osmotic minipumps, which deliver fluids at a constant flow rate for 5 days. Rats were given 5-fluorouracil (5-FU) to cause immune suppression, and then treated with injected or infused TA1 8 days later (the nadir of white cell count after 5-FU). Treatment groups, 8 rats each, were: control (minipumps with saline); low dose TA1 (0.2 mg/Kg sc injection; empty minipumps); high dose TA1 (3.5 mg/Kg sc injection; empty minipumps); and high dose infused TA1 (3.5 mg/Kg infused by minipumps). Immune parameters were determined at baseline and 8 days after 5-FU treatment (day 1 of TA1 treatment), and also at 5, 12, 20, and 27 days after TA1 treatment.
8 days after 5-FU treatment, rats were randomly assigned to one of the following groups (n=15): • Control (saline in minipump) • High dose TA1, injected s.c. at 3.5 mg/Kg (with empty minipumps) • Continuous infusion TA1, provided by minipump at 3.5 mg/Kg/5 days

The conditions of data set [3]: cited from earlier work.

Ends that are not written are not given here.

Take “PEG-Thymosin alpha 1: 20,000 molecular weight PEG conjugated to the N-terminal end of TA1 ({PEG 20 kDa}-SDAAVDTSSEITTKDLKEKKEVVEEAEN; ends and bridges not checked; UniProt P06454 2-29, looked up)”: in the data set with NK activity, the “return of NK activity (after depression by 5-FU)” value is “greater”. In addition, in the data set with activated T cells, CD25+, the “return of activated T cells, CD25+” value is reported as “greater”.

As for “Ac-SDAAVDTSSEITTKDLKEKKEVVEEAEN-OH [TA1, Thymosin alpha 1]”, the plasma half-life result in data set [1] is on record as “about 2 hours”. The adverse events result is reported as “no obvious adverse events” in data set [2] (one rat given both injection 3.5 mg/Kg and continuous infusion of another 3.5 mg/Kg); “No adverse events were observed” in data set [2] (rats, doses 15 times higher than usual (in one animal 30 times higher)). In data set [3], the “dose found to be safe for humans” value is recorded as not above 16 mg/kg body weight/day.

The values are drawn from patent publication US7297676B2, “Thymosin alpha 1 peptide/polymer conjugates” (SciClone Pharmaceuticals, Inc., priority 2001, dated 2007).
